According to patent US20230243812A1, “[…] TISSUE […] METHODS FOR FORMATION AND USE THEREOF” (President and Fellows of Harvard College, priority 2022, published 2023):
“Also recorded” adds a separate entry of the source.

Tested on: muscular bilayer tissues of biohybrid fish (human stem cell-derived CMs)
Test: Antagonistic contraction and swimming performance of self-paced biohybrid fish treated with stretch-activated channel blockers
Assay type: cell-based
Settings: for Spontaneous frequencies of treated muscular bilayer tissues (frequency-domain analysis of tail-beat angle) / Empirical probability of antagonistic contraction / Moving (swimming) speed: 250 μM streptomycin or 100 μM Gd3+; for Spontaneous frequencies of treated muscular bilayer tissues (frequency-domain analysis of tail-beat angle): power spectral density; for Empirical probability of antagonistic contraction / Moving (swimming) speed: self-paced biohybrid fish, at least 24 hours
Procedure: The biohybrid fish was placed in Tyrode's solution (1.8 mM CaCl2, 5 mM glucose, 5 mM Hepes, 1 mM MgCl2, 5.4 mM KCl, 135 mM NaCl, and 0.33 mM NaH2PO4 in deionized water, pH 7.4, at 37° C.; Sigma Aldrich, St. Louis, Mo.) in a 22 cm square chamber (VWR International, Radnor, Pa.) on a hotplate (VWR International, Radnor, Pa.) and temperature was maintained at 35° C. to 37° C. The recording of swimming performance of biohybrid fish was filmed with a sCMOS camera (Pco.edge, PCO AG, Germany) coupled with a zoom camera lens (Thorlabs Inc, Newton, N.J.) at 50 frames per second or a single-lens recorder (AXP55 4K Handycam, Sony, Japan) with a 26.8 mm wide-angle lens at 50 frames per second.
To check the effect of mechanical signaling on the antagonistic contraction of muscular bilayer tissues, the biohybrid fish were treated with 250 μM streptomycin or 100 μM Gd^3+ (both from Sigma-Aldrich, St. Louis, Mo.) before recording, streptomycin or Gd^3+ for at least 24 hours.
Digital videos recorded during locomotion experiments were converted to image stacks using a custom-made Matlab program (24) (R2020b, Mathworks, Natick, Mass.). The head, body, and tail positions of the biohybrid fish were tracked using an image processing software (ImageJ, NIH, Bethesda, Md.). The moving distance of the biohybrid fish was measured during each tail-beat cycle, and the swimming speed was calculated by dividing the cumulative distance travelled by the total time. Tail-beat amplitude was measured as the distance between maximum right and left excursions. Tail-beat angle (θ) was calculated as the body angle difference between chord lines of its anterior body and caudal fin at the maximum right and left excursions. Antagonistic contraction was determined by checking whether a muscle contraction induced the subsequent contraction of the opposite side muscle with any delay or not. The empirical probability of antagonistic contraction was determined by dividing the number of antagonistic contractions by the total number of contractions.

[1] = after Gd3+ treatment versus before

Compound	Spontaneous frequencies of treated muscular bilayer tissues (frequency-domain analysis of tail-beat angle)	Reduction in Re (Reynolds number) [1] [%]	Reduction in Sw (Swimming number) [1] [%]	Empirical probability of antagonistic contraction	Moving (swimming) speed	Empirical probability of antagonistic contraction (listed as Gd3+)
[Gd+3] [Gd^3+, gadolinium]	not harmonic	80.8	40.6	disrupted antagonistic contraction; also recorded: sensitive; also recorded: significantly decreased	reduced	reduced the chance of antagonistic muscle contraction
[H]/N=C(/N)N[C@H]1[C@H](O)[C@@H](O)[C@H](O[C@@H]2O[C@@H](C)[C@](O)(C=O)[C@H]2O[C@@H]2O[C@@H](CO)[C@H](O)[C@@H](O)[C@@H]2NC)[C@@H](N/C(N)=N\[H])[C@@H]1O [streptomycin]	not harmonic	–	–	disrupted antagonistic contractions; also recorded: sensitive; also recorded: reduced the chance of antagonistic muscle contraction; also recorded: significantly decreased	reduced	–
